The values that follow come from patent US6828315B1, “1-Amino triazoloc4,3-a! quinazoline-5-ones and/or -5-thiones inhibiting phosphodiesterase IV” (Warner-Lambert LLC, priority 1999, dated 2004).

A word on the melting point: it is the temperature, or range, at which the solid turns liquid.

As to `C#CCn1c(=O)c2cc(Br)ccc2n2c(N(C)C)nnc12` [Compound 88, 7-Bromo-1-dimethylamino-4-prop-2-ynyl-4H-[1,2,4]triazolo[4,3-a]quinazolin-5-one], the melting point turned out to be 234 °C.

Consider `O=c1nc2n(CC=Cc3ccccc3)nc(N3CCCCCC3)n2c2ccccc12` [Compound 109, 1-(azepan-1-yl)-3-(3-phenylallyl)-3H-[1,2,4]triazolo[4,3-a]-quinazolin-5-one], for which the melting point stood at 176 °C.

Consider `Cn1c(=O)c2cc(Cl)ccc2n2c(N3CCc4ccccc4C3)nnc12` [Compound 209, 7-chloro-1-(3,4-dihydro-1H-isoquinolin-2-yl)-4-methyl-4H-[1,2,4]triazolo[4,3-a]quinazolin-5-one], for which the melting point came to 272 °C.

As for `COC(=O)C(c1ccccc1)n1nc(N2CCCC2)n2c3ccc(Br)cc3c(=O)nc12` (stereo not shown) [Compound 154, (7-Bromo-5oxo-1-pyrrolidin-1-yl-5H-[1,2,4]triazolo[4,3-a]quinazolin-3-yl)-phenyl-acetic acid methyl ester], the melting point came out at 187 °C.

Regarding `O=c1c2ccccc2n2c(N3CCCCCC3)nnc2n1CC=Cc1ccccc1` [Compound 6, 1-Azepan-1-yl-4-(3-phenyl-allyl)-4H-[1,2,4]triazolo[4,3-a]quinazolin-5-one], the melting point amounted to 144 °C.

Regarding `O=c1c2cc(Cl)ccc2n2c(N3CCCCCC3)nnc2n1Cc1cccc(Cl)c1` [Compound 10, 1-(azepan-1-yl)-7-chloro-4-(3-chlorobenzyl)-4H-[1,2,4]triazolo[4,3-a]quinazolin-5-one], the melting point came out at 157 °C.

The molecule `O=c1c2cc(Cl)ccc2n2c(N3CCCCC3)nnc2n1Cc1ccccc1` [Compound 174, 4-benzyl-7-chloro-1-(piperidin-1-yl)-4H-[1,2,4]triazolo[4,3-a]-quinazolin-5-one] displayed a melting point of 178 °C.

`CN(C)c1nnc2n(Cc3ccc(CC(N)=O)cc3)c(=O)c3cc(Br)ccc3n12` [Compound 241, 2-[4-(7-Bromo-1-dimethylamino-5-oxo-5H-[1,2,4]triazolo[4,3-a]quinazolin-4-ylmethyl)-phenyl]-acetamide] showed a melting point of 268 °C.

`O=c1nc2n(Cc3ccc(Cl)cc3)nc(N3CCCCCC3)n2c2ccc(Cl)cc12` [Compound 115, 1-(azepan-1-yl)-7-chloro-3-(4-chlorobenzyl)-3H-[1,2,4]triazolo[4,3-a]quinazolin-5-one] returned a melting point of 245 °C.

For the molecule `Cc1ccc2c(c1)c(=O)n(Cc1cccnc1)c1nnc(N3CCCC3)n21` [Compound 97, 7-Methyl-4-pyridin-3-ylmethyl-1-pyrrolidin-1-yl-4H-[1,2,4)triazolo[4,3-a]quinazolin-5-one], the melting point amounted to 139 °C.

In turn, `O=c1nc2n(Cc3ccccc3)nc(N3CCCCCC3)n2c2ccc(Cl)cc12` [Compound 111, 1-(azepan-1-yl)-7-chloro-3-benzyl-3H-[1,2,4]triazolo[4,3-a]-quinazolin-5-one] had a melting point of 148 °C.

With `N#Cc1cccc(Cn2c(=O)c3cc(Br)ccc3n3c(N4CCCC4)nnc23)c1` [Compound 45, 3-(7-Bromo-5-oxo-1-pyrrolidin-1-yl-5H-[1,2,4]triazolo[4,3-a]quinazolin-4-ylmethyl)benzonitrile], the melting point stood at 206 °C.

On to `COc1ccc(Cn2nc(N3CCCCCC3)n3c4ccc(Cl)cc4c(=O)nc23)cc1OC` [Compound 124, 1-(azepan-1-yl)-7-chloro-3-(3,4-dimethoxybenzyl)-3H-[1,2,4]triazolo[4,3-a]quinazolin-5-one], for which the melting point turned out to be 153 °C.

Consider `O=c1c2cc(Br)ccc2n2c(N3CCC(O)C3)nnc2n1Cc1ccccc1` (stereo not shown) [Compound 187, 4-Benzyl-7-bromo-1-(3-hydroxy-pyrrolidin-1-yl)-4H-[1,2,4]triazolo[4,3-a]quinazolin-5-one], for which the melting point came to 176 °C.

In turn, `O=C(Cn1nc(N2CCCCCC2)n2c3ccc(Cl)cc3c(=O)nc12)c1ccccc1` [Compound 130, 1-Azepan-1-yl-7-chloro-3-(2-oxo-2-phenyl-ethyl)3H-[1,2,4]triazolo[4,3-a]quinazolin-5-one] yielded a melting point of 230 to 232 °C.

Molecule `COc1ccc(CCn2c(=O)c3cc(Cl)ccc3n3c(N4CCCCCC4)nnc23)cc1` [Compound 25, 1-(azepan-1-yl)-7-chloro-4-[2-(4-methoxyphenyl)ethyl]-4H-[1,2,4]triazolo[4,3-a]quinazolin-5-one] came in with a melting point of 136 °C.

Turning to `COC(=O)c1ccc(Cn2nc(N3CCCC3)n3c4ccc(Br)cc4c(=O)nc23)cc1` [Compound 145, 4-(7-bromo-5-oxo-1-(pyrrolidin-1-yl)-5H-[1,2,4]triazolo[4,3-a]-quinazolin-3-ylmethyl)benzoic acid methyl ester], the melting point is 193 °C.

On to `COc1ccc(C=CCn2c(=O)c3cc(Br)ccc3n3c(N4CCCCCC4)nnc23)cc1` [Compound 39, 1-Azepan-1-yl-7-bromo-4-[3-(4-methoxy-phenyl)-allyl]-4H-[1,2,4]triazolo[4,3-a]quinazolin-5-one], for which the melting point was 129 °C.

Molecule `N#Cc1ccc2c(c1)c(=O)n(Cc1ccccc1)c1nnc(N3CCCC3)n21` [Compound 197, 4-Benzyl-5-oxo-1-pyrrolidin-1-yl-4,5-dihydro-[1,2,4]triazolo[4,3-a]quinazoline-7-carbonitrile] returned a melting point of 219 °C.

For `CN(C)c1nnc2n(Cc3ccc(C#N)cc3)c(=O)c3cc(C#N)ccc3n12` [Compound 107, 4-(4-Cyano-benzyl)-1-dimethylamino-5-oxo-4,5-dihydro-[1,2,4]triazolo[4,3-a]quinazoline-7-carbonitrile], the melting point lay in the range of 147 to 149 °C.

With `CN(C)c1nnc2n(CC=Cc3ccncc3)c(=O)c3cc(Br)ccc3n12` [Compound 87, 7-Bromo-1-dimethylamino-4-(3-pyridin-4-yl-allyl)-4H-[1,2,4]triazolo[4,3-a]quinazolin-5-one], the melting point came out at 115 °C.

Molecule `Cn1c(=O)c2cc(Cl)ccc2n2c(N3CCCCCCC3)nnc12` [Compound 207, 1-(azocan-1-yl)-7-chloro-4methyl-4H-[1,2,4]triazolo[4,3-a]-quinazolin-5-one] showed a melting point of 123 to 125 °C.

Take `COc1ccccc1Cn1c(=O)c2cc(Cl)ccc2n2c(N3CCCCCC3)nnc12` [Compound 16, 1-(azepan-1-yl)-7-chloro-4-(2-methoxybenzyl)-4H-[1,2,4]triazolo[4,3-a]quinazolin-5-one]: the melting point lay in the range of 98 to 100 °C.

In turn, `O=c1nc2n(Cc3ccc(F)cc3)nc(N3CCCCCC3)n2c2ccc(Br)cc12` [Compound 135, 1-(azepan-1-yl)-7-bromo-3-(4-fluorobenzyl)-3H-[1,2,4]triazolo[4,3-a]quinazolin-5-one] displayed a melting point of 216 °C.

As for `COc1ccc(Cn2nc(N3CCCC3)n3c4ccc(Br)cc4c(=O)nc23)cc1` [Compound 146, 7-Bromo-3-(4-methoxy-benzyl)-1-pyrrolidin-1-yl-3H-[1,2,4]triazolo[4,3-a]quinazolin-5-one], the melting point came out at 164 °C.

With `Cn1c(=O)c2cc(Cl)ccc2n2c(N3CC4(C)CC3CC(C)(C)C4)nnc12` (stereo not shown) [Compound 211, 7-chloro-4-methyl-1-(1,3,3-trimethyl-6-azabicyclo[3,2,1]oct-6yl)-4H-[1,2,4]triazolo[4,3-a]-quinazolin-5-one], the melting point is 165 °C.

Molecule `O=c1c2cc(Cl)ccc2n2c(N3CCCCCC3)nnc2n1Cc1ccccc1Cl` [Compound 9, 1-(azepan-1-yl)-7-chloro-4-(2-chlorobenzyl)-4H-[1,2,4]triazolo[4,3-a]quinazolin-5-one] gave a melting point of 160 to 162 °C.

`Cc1ccc2c(=O)n(Cc3ccccc3)c3nnc(N4CCCCCC4)n3c2c1` [Compound 194, 1-Azepan-1-yl-4-benzyl-8-methyl-4H-[1,2,4]triazolo[4,3-a]quinazolin-5-one] returned a melting point of 202 °C.

As to `O=c1c2cc(Br)ccc2n2c(N3CCSCC3)nnc2n1CC=Cc1cccnc1` [Compound 77, 7-Bromo-4(3-pyridin-3-yl-allyl)-1-thiomorpholin-4-yl-4H-[1,2,4]triazolo[4,3-a]quinazolin-5-one], the melting point came out at 177 °C.

`O=c1c2ccccc2n2c(N3CCCCCC3)nnc2n1Cc1ccccc1` [Compound 201, 1-(azepan-1-yl)-4-benzyl-4H-[1,2,4]triazolo[4,3-a]quinazolin-5-one] showed a melting point of 157 °C.

For the molecule `O=c1nc2n(Cc3ccccn3)nc(N3CCCCCC3)n2c2ccc(Cl)cc12` [Compound 125, 1-(azepan-1-yl)-7-chloro-3-(2-pyridylmethyl)-3H-[1,2,4]triazolo[4,3-a]quinazolin-5-one], the melting point worked out at 153 °C.

In turn, `CN(C)c1nnc2n(Cc3cccnc3)c(=O)c3cc(Br)ccc3n12` [Compound 84, 7-Bromo-1-dimethylamino-4-pyridin-3-ylmethyl-4H-[1,2,4]triazolo[4,3-a]quinazolin-5-one] came in with a melting point of 142 °C.

For the molecule `Cn1c(=O)c2ccc(Cl)cc2n2c(N3CCCCCC3)nnc12` [Compound 175, 1-(azepan-1-yl)-8-chloro-4-methyl-4H-[1,2,4]triazolo[4,3-a]-quinazolin-5-one], the melting point turned out to be 179 °C.

For `CN(C)c1nn(Cc2ccc(O)cc2)c2nc(=O)c3cc(Br)ccc3n12` [Compound 148, 7-Bromo-1-dimethylamino-3-(4-hydroxy-benzyl)-3H-[1,2,4)triazolo[4,3-a]quinazolin-5-one], the melting point stood at 283 °C.

The molecule `O=C(Cn1c(=O)c2cc(Cl)ccc2n2c(N3CCCCCC3)nnc12)c1ccccc1` [Compound 27, 1-Azepan-1-yl-7-chloro-4-(2-oxo-2-phenyl-ethyl)-4H-[1,2,4]triazolo[4,3-a]quinazolin-5-one] came in with a melting point of 105 to 107 °C.

Turning to `O=c1c2cc(Br)ccc2n2c(N3CCCC3)nnc2n1Cc1c[nH]cn1` [Compound 63, 7-Bromo-4-(1H-imidazol-4-ylmethyl)-1-pyrrolidin-1-yl-4H-[1,2,4]triazolo[4,3-a]quinazolin-5-one], the melting point was 290 °C (dec.).

Molecule `CN(C)c1nnc2n(Cc3ccc(C#N)cc3)c(=O)c3cc(N)ccc3n12` [Compound 228, 4-(7-Amino-1-dimethylamino-5-oxo-5H-[1,2,4]triazolo[4,3-a]quinazolin-4-ylmethyl)-benzonitrile] returned a melting point of 163 °C.
